In ChEMBL document CHEMBL1201862, “PubChem BioAssay data set” (2004):
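Compound exposure: 48 hours, 5 concentrations, 96-well plates. The concentration for 50% growth inhibition is given as GI50.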 Active and inactive are the calls of the source. Rule as the data show it: active = GI50 up to about 1.1 µM and inactive = higher.

What was measured:
Experiment in all cases: NCI-60 cell line screen, 48 h
[1] = test system: SNB-75
[2] = test system: SK-MEL-5
[3] = test system: PC-3
[4] = test system: HOP-62
[5] = test system: HCT-15
[6] = test system: U-251
[7] = test system: DU-145
[8] = test system: Malme-3M
[9] = test system: IGROV-1
[10] = test system: NCI-H23
[11] = test system: UO-31
[12] = test system: NCI/ADR-RES
[13] = test system: SR
[14] = test system: RPMI-8226
[15] = test system: UACC-62
[16] = test system: ACHN
[17] = test system: HOP-92
[18] = test system: NCI-H522
[19] = test system: SK-OV-3
[20] = test system: MOLT-4

Measured: GI50

S=C(Nc1ccc2cn[nH]c2c1)Nc1ccc2cn[nH]c2c1
inactive: [1] 53 µM | [2] 45.1 µM | [3] 48.5 µM | [4] > 100 µM | [6] 57.4 µM | [7] > 100 µM | [8] > 100 µM | [9] 46.8 µM | [10] 41.6 µM | [11] > 100 µM | [12] > 100 µM | [13] 25.8 µM | [14] 38 µM | [15] 48.5 µM | [16] 51.8 µM | [17] > 100 µM | [18] 34.1 µM | [19] > 100 µM
63.5 µM: [5]

CC(=O)O[C@H]1C(=O)[C@]2(C)[C@@H](OC(=O)OCCC(O)CO)C[C@H]3OC[C@@]3(OC(C)=O)[C@H]2[C@H](OC(=O)c2ccccc2)[C@]2(O)C[C@H](OC(=O)[C@H](O)[C@@H](NC(=O)c3ccccc3)c3ccccc3)C(C)=C1C2(C)C (stereo not given in full)
2.14 µM: [5]
inactive: [11] 8.61 µM | [12] 15.2 µM | [16] 3.48 µM | [17] 8.63 µM
active: [1] < 0.01 µM | [2] 0.0172 µM | [3] < 0.0128 µM | [4] 0.0964 µM | [6] 0.0135 µM | [7] 0.0125 µM | [20] < 0.0106 µM | [8] < 0.01 µM | [9] < 0.0142 µM | [10] < 0.0127 µM | [13] < 0.01 µM | [14] < 0.01 µM | [15] 0.0108 µM | [18] < 0.01 µM | [19] 0.0307 µM

Cc1cc2c(cc1C)C(=O)C1(C2)Cc2c(C)ccc(C)c2C1=O (stereo not given)
> 100 µM: [5]
inactive: [1] > 100 µM | [2] > 100 µM | [3] > 100 µM | [6] > 100 µM | [7] > 100 µM | [20] > 100 µM | [8] 84.9 µM | [9] 98.4 µM | [11] > 100 µM | [12] > 100 µM | [13] > 100 µM | [14] > 100 µM | [15] > 100 µM | [16] > 100 µM | [17] > 100 µM | [18] > 100 µM

O/N=C1\Nc2ccccc2OCc2cc(Br)c(Br)cc2COc2ccccc2N\C1=N/O
5.86 µM: [5]
inactive: [1] 20.2 µM | [2] 12.9 µM | [3] 13.4 µM | [4] 15.5 µM | [6] 13.8 µM | [7] 13.6 µM | [20] 3.63 µM | [8] 16.4 µM | [9] 2.79 µM | [10] 13.8 µM | [11] 19.1 µM | [12] 20.2 µM | [13] 2.06 µM | [14] 10.8 µM | [15] 15.3 µM | [16] 5.97 µM | [17] 12.6 µM | [18] 6.43 µM | [19] 17.2 µM

COC(=O)c1c2c(cc3c1CC1(Cc4cc5c(c(C=O)c4C1)CCC5)C3)CCC2 (stereo not given)
40.3 µM: [5]
inactive: [1] > 100 µM | [2] 16 µM | [3] 30.8 µM | [4] 51.9 µM | [6] 19.8 µM | [7] 38.1 µM | [20] 17 µM | [8] 22.9 µM | [9] 28.4 µM | [10] 47.8 µM | [11] 25.1 µM | [12] 40.5 µM | [13] 19.3 µM | [14] 55.1 µM | [16] 32.9 µM | [17] 19.3 µM | [18] 17.3 µM | [19] 42.5 µM

COC(=O)C1=C(OC(=O)/C=C/c2ccc(Cl)cc2)C(C(=O)OC)[C@]2(O)[C@@H](C(=O)OC)[C@H]1C[C@@H](c1ccccc1)[C@@H]2C(=O)OC (stereo not given in full)
3.66 µM: [5]
inactive: [1] 12.3 µM | [2] 4.55 µM | [3] 5.65 µM | [4] > 57.4 µM | [6] 4.74 µM | [7] 7.31 µM | [20] 3.76 µM | [8] 4.94 µM | [9] 3.18 µM | [10] 3.44 µM | [11] 7.08 µM | [12] 3.52 µM | [13] 4.5 µM | [14] 3.92 µM | [15] 7.45 µM | [16] 4.74 µM | [17] 2.58 µM | [18] 2.34 µM | [19] 29.9 µM

O=[N+]([O-])c1cc(C2ON=C(c3ccccc3)N2C23CC4CC(CC(C4)C2)C3)ccc1Cl (stereo not given)
inactive: [1] 15.5 µM | [2] > 100 µM | [3] > 100 µM | [4] > 100 µM | [6] > 100 µM | [7] > 100 µM | [20] > 100 µM | [8] > 100 µM | [9] > 100 µM | [10] > 100 µM | [11] > 100 µM | [12] > 100 µM | [13] > 100 µM | [14] > 100 µM | [16] > 100 µM | [17] > 100 µM | [18] > 100 µM | [19] > 100 µM
> 100 µM: [5]

Cc1nc2ccc(F)cc2c2c1CCN2c1ccccc1
inactive: [1] 12.8 µM | [2] 12.9 µM | [3] 19.1 µM | [4] 32.9 µM | [6] 26 µM | [7] 31.4 µM | [20] 15.1 µM | [8] 20.2 µM | [9] 18.6 µM | [10] 20 µM | [11] 19 µM | [12] 18.3 µM | [13] 16.7 µM | [14] 15.8 µM | [15] 12 µM | [16] 21.1 µM | [17] 12.2 µM | [18] 17.8 µM
25.9 µM: [5]

CC(=O)OCC12C(=O)C[C@@H](C)C3(CC(c4ccoc4)OC3=O)C1CCC(OC(C)=O)C21CO1 (stereo not given in full)
> 100 µM: [5]
inactive: [1] > 100 µM | [2] > 100 µM | [3] > 100 µM | [4] > 100 µM | [6] > 100 µM | [7] > 100 µM | [20] > 100 µM | [8] > 100 µM | [9] > 100 µM | [10] > 100 µM | [11] > 100 µM | [12] > 100 µM | [13] > 100 µM | [14] > 100 µM | [15] > 100 µM | [16] > 100 µM | [17] > 100 µM | [18] > 100 µM

CCOC(=O)C1(C#N)C(C#N)(C#N)C1(C#N)C#N
> 100 µM: [5]
inactive: [2] > 100 µM | [3] > 100 µM | [4] > 100 µM | [6] > 100 µM | [7] > 100 µM | [20] > 100 µM | [8] > 100 µM | [9] > 100 µM | [10] > 100 µM | [11] > 100 µM | [12] > 100 µM | [13] 88.5 µM | [14] > 100 µM | [15] > 100 µM | [16] > 100 µM | [17] > 100 µM | [18] > 100 µM | [19] > 100 µM

CC1(C)[C@@H](Cn2cnc3c(N)ncnc32)CC[C@@]1(C)CO
51.1 µM: [5]
inactive: [1] > 100 µM | [2] 60.7 µM | [3] 66.2 µM | [4] > 100 µM | [6] > 100 µM | [7] > 100 µM | [20] 11.9 µM | [8] > 100 µM | [9] 42.7 µM | [10] 55 µM | [11] 81.1 µM | [12] 84.5 µM | [13] 11.9 µM | [15] 32 µM | [16] 81.5 µM | [17] > 100 µM | [18] 41.3 µM | [19] > 100 µM

O=S1(=O)N=C(SCc2c[nH]c3ccccc23)N(c2ccccc2)c2ccncc21
inactive: [1] 21.5 µM | [2] > 100 µM | [3] 66.7 µM | [4] > 100 µM | [6] 87.5 µM | [7] 35.2 µM | [20] 46.7 µM | [8] > 100 µM | [10] > 100 µM | [11] 18.5 µM | [12] > 100 µM | [13] 34.2 µM | [15] > 100 µM | [16] 65.3 µM | [17] 53.7 µM | [18] 37.5 µM | [19] > 100 µM
> 100 µM: [5]

CCn1c(=O)c2c3cc(OC(C)=O)ccc3oc2c2ccc(OC(C)=O)cc21
39.1 µM: [5]
inactive: [1] 2.69 µM | [2] 33 µM | [3] 33 µM | [4] 37.9 µM | [6] 32.6 µM | [7] 36.1 µM | [20] 23.6 µM | [8] 39.4 µM | [9] 38.9 µM | [10] 37.9 µM | [11] 26.6 µM | [12] 36.9 µM | [13] 36.3 µM | [15] 21.7 µM | [16] 24.8 µM | [17] 23.4 µM | [18] 39.1 µM | [19] 75.9 µM

CC[C@@]1(O)CC(OC2CC(N3CCOCC3)C(O)C(C)O2)c2c(O)c3c(c(O)c2[C@H]1O)C(=O)c1cccc(O)c1C3=O (stereo not given in full)
active: [1] 0.139 µM | [2] 0.0966 µM | [3] 0.0957 µM | [4] 0.0679 µM | [6] 0.08 µM | [7] 0.084 µM | [8] 0.0502 µM | [9] 0.0959 µM | [10] 0.175 µM | [12] 0.145 µM | [13] 0.0193 µM | [14] 0.0897 µM | [15] 0.0667 µM | [16] 0.0359 µM | [17] 0.0429 µM | [18] 0.166 µM | [19] 0.126 µM
0.0573 µM: [5]
